Test system: γ-IFN-increased protein/DNA complex with DRα 5′-flanking region probe
Test: Gel shift (EMSA) with 137 class II probe, extracts from γ-IFN-treated FRTL-5 cells
Type: cell-based, rat
Conditions: for % inhibition of IFN-increased complex formation: 137 class II probe, γ-IFN-treated 5H cells
Description: Cells were grown in 6H medium with 5 % calf serum for 6-7 days to 70-80% confluence, then shifted to 5H medium with 5 % calf serum for 5 days. TSH (1×10^−10 M), gamma-interferon (100 U/ml), MMI (5 mM), and different concentrations of MMI derivatives or tautomeric cyclic thiones (0.0001 to 10 mM) were added as appropriate for […]. Cells were then harvested and extracts were made by a modification of a method of Dignam, J., et al. Methods in Enzymology, 101:582-598 (1983). In brief, cells were harvested by scraping after being washed twice with cold phosphate-buffer saline (PBS). Subsequently they were pelleted, washed in cold PBS and then pelleted again. The pellet was resuspended in Dignam buffer C (20 mM Hepes buffer at pH 7.9, 1.5 mM MgCl2, 0.42 M NaCl, 25% glycerol, 0.5 mM dithiotreitol (DTT), 0.5 mM phenylmethylsulfonylfluoride (PMSF), 1 […] pepstatin). The final NaCl concentration was adjusted on the basis of cell pellet volume to 0.42 M and cells were lysed by repeated cycles of freezing and thawing. Extracts were then centrifuged at 10,000×g at 4° C. for 20 min. The supernatant was recovered, aliquoted and stored at −70° C.
Cell extracts to perform class II gel shift studies were prepared exactly as for class I studies (Dignam et al., ibid, 582-598 (1983); Giuliani C, et al., J. Biol. Chem. 270: 11453-11462 (1995); Saji M, et al., J. Biol. Chem. 272: 20096-20107 (1997); Montani, V., et al., Endocrinology 139: 280-289 (1998a); Montani, V., et al., Endocrinology 139: 290-302 (1998b)), with the exception that the extracts were from γ-interferon treated cells, usually 100 U/ml interferon for 24 to 48 hours. Similarly, electrophoretic mobility shift assays (EMSA) were performed in the same way. Oligonucleotides used for EMSA were synthesized (Operon Technologies, Inc.) or were purified from 2 % agarose gels using either QIAEX (Qiagen, Chatsworth, Calif.) or Jet Sorb (Genomed) following restriction enzyme treatment of chimeric HLA-DRα-CAT constructs (Montani et al., 1998a, b). The oligonucleotides were dephosphorylated with calf intestinal alkaline phosphatase, labeled with […] or with [γ-^32P]ATP using T4 polynucleotide kinase, then purified on an 8% native polyacrylamide gel (Giuliani C, et al., ibid, 11453-11462 (1995); Saji M, et al., ibid, 20096-20107 (1997); Sambrook J, et al., ibid, 2:11.23-11.44 (1989); Montani, V., et al., ibid, 280-289 (1998a), 290-302 (1998b)).
Binding reactions for class II EMSA used similar conditions as well. They were carried out in a volume of 20 μl for 30 min at room temperature. The reaction mixtures contained 1.5 fmol of [^32P]DNA, 3 μg cell extract and 1.5 to 3 μg poly(di-dC) in 10 mM Tris-Cl at pH 7.9, 1 mM MgCl2, 1 mM DTT, 1 mM EDTA, and 5% glycerol. Where indicated, unlabeled double- or single-stranded oligonucleotides were added to the binding reaction as competitors and incubated with the extract for 20 min at room temperature prior to the addition of labeled DNA. Similarly, in experiments using antiserum, extracts were also incubated in the same buffer containing antiserum or normal rabbit serum for 20 min at room temperature before being processed as above. Following incubations, reaction mixtures were subjected to electrophoresis on 3.5 or 5 % native polyacrylamide gels at 160 V in 0.5xTBE, at room temperature, for 1.5 to 2 h. Gels were dried and autoradiographed at -80° C overnight unless otherwise noted.
FIG. 7 depicts the effect of MMI on the ability of γ-IFN to increase the formation of protein/DNA complexes with the […] DR α5′-flanking region probe. The radiolabeled probe is the same as that used and diagrammatically presented in FIG. 6; it contains −137 bp to +45 bp of the 5′-flanking region of DRα-CAT chimera. Extracts were from FRTL-5 rat thyroid cells grown to near confluency in TSH, maintained 6 days in SH medium, then treated with 100 U/ml γ-IFN, 5 mM MMI, or both for the last 48 h before the experiment was terminated. […]

Row | Compound | % inhibition of IFN-increased complex formation (10 μM) [%] | % inhibition of IFN-increased complex formation (100 μM) [%] | % inhibition of IFN-increased complex formation (1 mM) [%] | % inhibition of IFN-increased complex formation (5 mM) | suppression of interferon-induced class II protein/DNA complexes compared with MMI (FIG. 8) (1 mM)
1 | Sc1ncc[nH]1 [Compound 3, 2-Mercaptoimidazole] | 0 | 0 | 0 | 0% | 
2 | O=[N+]([O-])c1ccc2[nH]c(S)nc2c1 [Compound 5, 2-Mercapto-5-nitrobenzimidazole] | 0 | 0 | 45 ± 21 | Insol | 
3 | Cn1c(-c2ccccc2)cnc1S [Compound 10, 5-Phenylmethimazole] | 35 ± 15 | 78 ± 10 | 95 ± 16 |  | 
4 | Sc1nc2ccccc2[nH]1 [Compound 4, 2-Mercaptobenzimidazole] | 0 | 5 | 65 ± 15 | Insol | 
5 | Cc1ccc2[nH]c(S)nc2c1 [Compound 6, 2-Mercapto-5-methylbenzimidazole] | 0 | 0 | 35 ± 18 | Insol | 
6 | Cc1cnc(S)n1C [Compound 9, 5-Methylmethimazole] | 0 | 0 | 25 ± 15 | 40 ± 20% | 
7 | Cc1ncc([N+](=O)[O-])n1CCO [Compound 2, 2-Methyl-5-nitro-1-imidazole ethanol] | 0 | 0 | 55 ± 14 | 95 ± 10% | significantly more effective suppressors than MMI
8 | Cn1ccn(C)c1=S [Compound 8, N-Methylmethimazole] | 0 | 21 ± 18 | 86 ± 14 |  | significantly more effective suppressors than MMI
9 | CSc1nccn1C [Compound 7, S-Methylmethimazole] | 0 | 16 ± 11 | 74 ± 13 |  | significantly more effective suppressors than MMI
10 | Cn1ccnc1S [Compound 1, 1-Methylimidazole-2-thiol] | 0 | 0 | 10 ± 5 | 85 ± 12% | 

Source: patent publication US6365616B1, “Methimazole derivatives and tautomeric cyclic thiones to treat autoimmune diseases” (Sentron Medical, Inc., priority 1998, dated 2002)
